Columns and labels:
[1] = tested on: myelin; test: In vitro detection of focal demyelination, LPC rat model; assay type: binding; details: LPC-induced focal demyelination, rat brain sections
Experimental: Sprague-Dawley female rats (220-250 g, 8 weeks old) were anesthetized and positioned in a stereotaxic frame (Stoelting). A small incision was made in the scalp, and the corpus callosum was targeted using the following stereotaxic coordinates, relative to bregma: anterior-posterior, 0.0 mm; medial-lateral, 2.0 mm; and dorsal-ventral, 3.4 mm. A small hole was drilled in the skull, and a 26S-gauge needle attached to a 10 μL Hamilton Syringe was lowered into the corpus callosum according to the dorsal-ventral coordinate. A microinjector pump (Stoelting) controlled the infusion of 6 μL of lysolecithin (LPC, 0.1% in saline) at a rate of 0.25 μL/min, after which the needle was left in place for 2 min in order to prevent liquid reflux out of the brain parenchyma. The incision was then closed using 5-0 Ethicon sutures, and the animals were allowed to recover on a heating pad. After 5-7 days, the animals were ready for study.
Five days after surgery, the rats were anesthetized and perfused with saline followed by 4% PFA. […] Sections were then examined under a microscope (Leica DM4000B, Leica Microsystem Inc., Buffalo Grove, Ill., USA) equipped for fluorescence (DFC7000T), and images of the stained mouse whole brain sections were acquired with the same exposure time. […]

[2] = tested on: myelin; test: In situ staining after tail vein injection (Example 2); assay type: in vivo, mouse; details: 1.0 mg (50 mg/kg) tail vein, WT mice, 1 h
Experimental: Wild-type mice were administered the newly synthesized compounds (40 mg/kg) via tail vein injection, and 30-60 min later the mice were perfused transcardially with saline followed by 4% PFA in PBS. Brains and spinal cords were then removed, postfixed by immersion in 4% PFA overnight, dehydrated in 30% sucrose solution, cryostat sectioned at 100 μm, mounted on superfrost slides, and images were acquired directly using a Leica fluorescent microscope.
Following the in vitro studies, we then investigated the ability of compound 21 to readily enter the brain and bind to myelin in situ. A dose of 1.0 mg of compound 21 (50 mg/kg) was administered via the tail vein to wild-type (WT) mice. One hour after injection, the mice were perfused with saline followed by 4% paraformaldehyde (PFA) and the brain and spinal cord were removed and sectioned. The distribution of compound 21 was then directly examined under a fluorescent microscope.

[3] = tested on: myelin; test: Quantitative microPET/CT imaging in WT rats (Example 2); assay type: in vivo, rat
Experimental: (§1) For better anatomic localization, CT coregistration was applied.
Following radiosynthesis, the pharmacokinetic profile of [^18F]21 was fully characterized by quantitative microPET/CT imaging in WT rats (n=3). […] The brain radioactivity peaked at 3 min postinjection followed by rapid clearance before reaching a plateau at 40-60 min postinjection.

[4] = tested on: myelin; test: In situ autoradiography of mouse brain (Example 2); assay type: in vivo; details: mouse brain coronal sections
Experimental: Wild-type mice were euthanized at 30 min post iv injection of [^18F]21 (111 MBq, 3.0 mCi). The brains were rapidly removed, placed in OCT embedding medium, and frozen at −20° C. After reaching equilibrium at this temperature, the brains were coronally sectioned at 60 μm on a cryostat and mounted on superfrost slides. After drying by air at room temperature, the slides were put in a cassette and exposed for 20 min to film to obtain images.
To validate the PET results and confirm that the PET signals were indeed from specific binding to myelin, we conducted ex vivo autoradiography in the mouse brain following administration of [^18F]21 through tail vein injections. After 1 h, the mouse brain was dissected for coronal tissue sectioning. […] Thus, combination of in situ autoradiography and PET imaging confirmed that [^18F]21 binds specifically to myelin in vivo.

[5] = tested on: myelin; test: Quantitative microPET/CT imaging in Shiverer and WT mice; assay type: in vivo, mouse; details: SUVs from 40 to 60 min
Experimental: as §1
To further evaluate the in vivo binding specificity of [^18F]21, we investigated the pharmacokinetic profiles of [^18F] 21 in a Shiverer mouse model that is deficient in myelin in the brain. Thus, the pharmacokinetic profiles of [^18F]21 were quantitatively compared between Shiverer mice (C3Fe.SWV-Mbpshi/J, n=2) and age-matched WT mice (CB57J, n=2).
Dynamic emission scans were acquired for 60 min in 3D list mode immediately after [^18F]21 (0.3 mCi each mouse, 11.1 MBq) was administered. The brain uptake of [^18F]21 was lower in the Shiverer brain than in the WT littermates (1.25 vs 1.64). After the brain concentration of [^18F]21 reached a plateau, the SUVs from 40 to 60 min were summarized and compared.

[6] = tested on: myelin; test: Quantitative microPET/CT imaging of spinal cord, rat SCI model; assay type: in vivo
Experimental: Sprague-Dawley female rats (220-250 g, 8 weeks old) were anesthetized and a restricted laminectomy was conducted to expose the dorsal surface of T13. The vertebral column between T12 and L1 was then stabilized with clamps and forceps fixed to the base of an Infinite Horizon impact device. The midpoint of T13 was impacted with a force of 250 kDyn using a 2.5 mm stainless steel impactor tip, which was used to induce a moderately severe contusive injury to the spinal cord. The musculature was then sutured over the laminectomy site and the skin closed with wound clips followed by subsequent treatment with Marcaine at the incision site. The force/displacement graph was used to monitor impact consistency. After surgery, the animals were carefully monitored daily for pain and body weight with manual bladder expression 2-3 times daily to stimulate reflex voiding until the animals could urinate independently.
as §1
So far, imaging of the spinal cord remains a great challenge. […] Next, we asked whether [18F]21 PET is capable of in vivo imaging of myelin deficiency or myelin damage in living animal models. We conducted [^18F]21-PET imaging in a rat model of thoracic contusive SCI. In this model, the contusion was made at T13 to introduce demyelination. In vivo [^18F]21 PET imaging was performed before (as a baseline scan) and 1 day after contusion. The uptake of [^18F]21 in every spine segment was then normalized to the average spine uptake. […] After microPET/CT imaging, we conducted in situ histological staining of the spinal cord 60 min after injection of nonlabeled compound 21 through the tail vein.

[7] = tested on: myelin; test: In vitro tissue staining and fluorescent intensity ratio, mouse brain sections (Example 1); assay type: binding; details: 1 mM staining solution, 25 min
Experimental: Wild-type mice (20-22 g, 8 weeks old) were deeply anesthetized and perfused transcardially with precooled saline (4° C., 10 mL/min for 1 min followed by 7 mL/min for 6 min) followed by fixation with precooled 4% PFA in PBS (4° C., 10 mL/min for 1 min followed by 7 mL/min for 6 min). Brain tissues were then removed, postfixed by immersion in 4% PFA overnight, dehydrated in 10%, 20%, and 30% sucrose solution, embedded in a freezing compound (OCT, Fisher Scientific, Suwanee, Ga.), and sectioned at […] with a cryostat (Thermo HM525, Thermo Fisher Scientific Inc., Chicago, Ill., USA). […] Sections were then examined under a microscope (Leica DM4000B, Leica Microsystem Inc., Buffalo Grove, Ill., USA) equipped for fluorescence (DFC7000T), and images of the stained mouse whole brain sections were acquired with the same exposure time. ImageJ software was then used to quantify pixel intensity values on 6 sections of each tested compound. […] Images were analyzed by two experienced individuals. The FIR of white matter to gray matter were then calculated.
In vitro Staining and Assay of the Fluorescent Intensity. […] Next, we selected a representative region in the genus of the corpus callosum (gcc) and a representative region in the subcortical gray matter (cortex) and calculated the fluorescent intensity ratio (FIR) between both regions (FIG. 2A). […]

## CNc1ccc(/C=C/c2ccc(NCc3cn(CCF)nn3)cc2)cc1 [Compound 21, (E)-N-((1-(2-Fluoroethyl)-1H-1,2,3-triazol-4-yl)methyl)-4-(4-(methylamino)styryl)aniline]
[1]
  detection of demyelinated lesion by fluorescent staining: capable of detecting the demyelinated focal lesion by fluorescent staining
[2]
  brain and spinal cord entry and myelin binding in situ: readily entered the brain and spinal cord and localized in all the myelinated regions in proportion to the myelin content
[2]; listed as TAFDAS
  brain and spinal cord entry and myelin binding in situ: readily penetrates the BBB and binds to myelin membranes in the brain and spinal cord

## CNc1ccc(/C=C/c2ccc(NCc3cn(CC[18F])nn3)cc2)cc1 [[^18F]21]
[3]
  uptake in the brain: high uptake in the brain
[3]; postinjection
  time of peak brain radioactivity: 3 min
[4]
  labeling in ex vivo autoradiography: distinctly labeled the corpus callosum
[5]
  uptake at 40-60 min, Shiverer vs control: significantly decreased compared to the control mouse brain
[6]; 1 day post-T13 contusion
  uptake at L1 normalized to average spine uptake: 1.08
  uptake at T12 normalized to average spine uptake: 0.99
[6]; 1 day post-T13 contusion (SCI group)
  uptake at T13 normalized to average spine uptake: 0.81
[6]; before contusion (baseline)
  uptake at L1 normalized to average spine uptake: 1.05
  uptake at T12 normalized to average spine uptake: 0.99
  uptake at T13 normalized to average spine uptake: 1.02

## CNc1ccc(/C=C/c2ccc(N)c(OCCF)c2)cc1 [Compound 32, (E)-4-(4-Amino-3-(2-fluoroethoxy)styryl)-N-methylaniline]
[7]
  fluorescent intensity ratio (FIR) white matter (gcc) vs gray matter (cortex): > 2

## CC(C)Nc1ccc(/C=C/c2ccc(N)c(OCCF)c2)cc1 [Compound 35, (E)-4-(4-Amino-3-(2-fluoroethoxy)styryl)-N-isopropylaniline]
[7]
  fluorescent intensity ratio (FIR) white matter (gcc) vs gray matter (cortex): > 2

Reference: patent US20230201382A1, “RADIOLIGANDS FOR MYELIN” (CASE WESTERN RESERVE UNIVERSITY, priority 2016, published 2023)
